Source: patent US5985926A, “Method for inhibiting intracellular viral replication” (Cell Therapeutics, Inc., priority 1997, dated 1999)

Assays:
[1] = tested on: CMV promoter in 293-EBNA cells; test: AP reporter gene expression from CMV promoter, 293-EBNA cells stably transfected with pCMV.AP; type: cell-based, human cytomegalovirus; human cells; conditions: for IC50: Homo sapiens, 293-EBNA stably transfected with pCMV.AP (FIG. 6), read-out: IC50, AP reporter gene expression (pCMV.AP); for inhibition of AP expression (CMV promoter): in words
Description: An assay for measuring the anti-viral activity of the compounds involves testing the abilities of the compounds to inhibit gene expression directed by specific viral promoters in cell lines. Specifically, a plasmid construct, pCMV.AP, using the human cytomegalovirus (CMV) enhancer and promoter to direct the expression of the secreted human placental alkaline phosphatase reporter gene were transformed into a tumor cell line (e.g., 293-EBNA cells). The cultured cells were treated with various concentrations of the compounds. The expression of the alkaline phosphatase (AP) reporter gene in the individual cultures can then be measured by following the change in absorbance at A405 of the cell conditioned media in the presence of a suitable substrate (e.g., ortho-nitrophenol phosphate) (Berger et al., Gene 66:1,1988).
The construction of expression vectors for secreted placental alkaline phosphatase (sPAP) was performed by obtaining a mammalian episomal expression vector pBL3, derived from the plasmids pMEP4 and pCEP4 (Invitrogen Corp). Specifically, a 600 bp Spe I--Kpn I fragment spanning the CMV promoter from pCEP4 and a 9500 bp Xba I--Kpn I vector fragment from pMEP4 were isolated and ligated together to form pBL3. Full length sPAP cDNA was amplified by PCR using the plasmid pGEM4Z/SEAP (ATCC) as template with primers 5'-[…]-3' (SEQ ID NO. 1) and 5'-[…]-3' (SEQ ID NO. 2). The PCR product was then digested with Xba I and Sal I and inserted between the Nhe I site and the Xho I site within the multiple cloning region of pBL3. The resulting plasmid was designated as PCMV.AP.

293-EBNA cells [2] = test: Viability of 293-EBNA cells, Alamar Blue; type: cell-based, human
Description: (§1) Cell viability was measured by a colorimetric assay that uses Alamar Blue dye (Alamar, Inc.) to report cell proliferation, viability and cytotoxicity. This vital dye indicates cell activity by serving as substrate for mitochrondrial dehydrogenases for the formation of soluble dyes which can be quantitated by determining the difference in absorbance between A570 and A600 using a plate reader.
as §1, with “[…]” for “colorimetric”
This example illustrates that CT2576 suppressed both tat-dependent and TNF-α induced HIV-LTR transcription with an IC50 of approximately 10 μM. Study of the effects of CT2576 on cell toxicity was performed using the Alamar Blue™ dye (Alamar Biosciences) according to the manufacturer's instructions. CT2576 was not toxic to 293-EBNA cells at concentrations up to 35 μM. To show CT2576 can inhibit HIV expression, CT2576 was tested for the ability to block HIV p24 antigen expression in chronically or acutely infected cells. Specifically, CT2576 inhibited the TNF-α and IL-6 induced and the constitutive expression of HIV in the chronically infected U1 cells and in peripheral blood lymphocytes (PBL) freshly infected with a HIV strain from a clinical isolate with an IC50 of approximately 1 μM. Pharmacological inhibition of synthesis of selected PL may therefore be a novel therapeutic approach to suppression of HIV replication.

[3] = tested on: PA (phosphatidic acid) formation in tat-transfected and tar-transfected cells; test: PA mass / myrPA formation in serum-stimulated EB293, 293tat and 293tar cells; type: cell-based, human
Description: Transformed and serum-stimulated cells were measured for total PA mass according to the methods described herein. […] The columns in FIG. 18 represent: (1) EB293 cells plus serum, (2) EB293 cells plus serum plus CT3556 (10 μM.), (3) 293tat cells plus serum, (4) 293tat cells plus serum plus CT3556 (10 μM.), (5) 293tar cells plus serum, and (6) 293tar cells plus serum plus CT3556 (10 μM.).
This procedure begins with those cells that would be normally infected with a virus, such as a retrovirus. However, it is not necessary to utilize a cell line containing a retroviral genome, such as U1 cells. In view of the necessity to utilize containment facilities when using an infected cell line, it is preferable to utilize a macrophage cell line that is not infected. Examples of appropriate macrophage cell lines include, U937, THP1, U1, and P288s (available from standard sources, such as ATCC). The cells are stimulated with a stimulant with or without a candidate drug. Examples of stimulants include 3-5% serum, such as fetal calf serum, or tumor necrosis factor (TNF) (e.g., 20 ng/ml) both of which are standard laboratory reagents. After a time course (within 5 minutes, preferably within 1 minute), the cells are immersed in ice cold methanol to stop any cellular signaling reactions.
One must first quantitatively and qualitatively separate PAs from the other lipids found in serum by a chemical extraction of lipids and high performance liquid chromatography (HPLC) to separate and detect PAs. Chemical extraction can be accomplished, for example, by the method of Bligh et al. (Canadian J. Biochem. Physiol. 37:911-917, 1959) or that of Folch et al. (J. Biol. Chem. 226:497-509, 1957). Briefly, the method of Bligh et al. involves an organic extraction of lipids from biological tissue homogenates or fluids. One volume of sample and three volumes of methanol:chloroform (2:1) are vigorously shaken for 2 min. One volume of chloroform is added and then shaken vigorously for 30 sec. One volume of water is added and then shaken vigorously for 30 sec. The mixture is filtered and the upper aqueous layer is discarded. The lower organic layer contains a mixture of lipid classes. The method of Folch et al. involves the extraction of lipids from biological tissue homogenates or body fluids. One volume of sample plus 20 volumes of chloroform:methanol (2:1) are vigorously shaken for 2 min. The mixture is filtered and an amount of 0.1 N KCl equal to 20% of the extraction mixture volume is added and the mixture is shaken vigorously for 2 min. The aqueous and organic phases are allowed to separate. The upper aqueous layer is discarded. The lower organic layer contains a mixture of lipid classes. Free fatty acids and neutral lipids can be separated from phospholipids by normal phase high performance liquid chromatography (HPLC) by modifying the method of Van Kessel et al. (Biochim et Biophys Acta 486:524-530, 1977). This method involves separation of lipids into their major classes by normal phase (silica) high performance liquid chromatography (HPLC). A 5 micron, 25 cm×0.45 cm silica HPLC column is connected to a binary solvent delivery system followed with a UV detector. The lipid sample is injected on the column and a solvent gradient is run at 1.0 ml/min. […]
Transformed and serum-stimulated cells were measured for total PA mass according to the methods described herein. […]

[4] = tested on: HIV-LTR promoter (tat transactivation) in 293-EBNA cells; test: AP reporter gene expression from HIV-LTR promoter with tat expression vector, 293-EBNA cells; type: cell-based, HIV; human cells; conditions: 293-EBNA cells, HIV promoter, in words
Source text: The plasmid construct, pHIV.AP, using the human immunodeficiency virus (HIV) long terminal repeat (LTR) promoter (derived from pU3R-III CAT, Sodroski et al., Science 227:171, 1985) to direct the expression of the sPAP reporter gene, was made by replacing the CMV promoter region from pCMV.AP with the HIV-LTR promoter. PHIV.AP was co-transfected with pSV2tat72, an expression vector for the 72 amino acids tat protein from HIV (Frankel and Pabo, Cell 55:1189-1193, 1988), into 293-EBNA cells (Invitrogen). The cultured cells were treated with various concentrations of the compounds. The expression of the alkaline phosphatase (AP) reporter gene in the individual cultures was measured by following change in absorbance at 405 nm of the cell conditioned media in the presence of a suitable substrate (e.g., ortho-nitrophenol phosphate) (Berger et al., Gene 66:1-10, 1988).
We set up a cell-based system with a cell line cotransfected with an expression plasmid using HIV-1-LTR promoter to direct synthesis of AP reporter gene and an expression plasmid to direct synthesis of the first 72 amino acids of tat protein. Plasmid pREP7 (Invitrogen) was converted to pREP7b by deleting 2,040 bp EBNA-1 coding region and by replacing the pBR322 origin of replication (ori) with the pBluescript KS (Stratagene) ori region. The cDNA for secreted placental alkaline phosphatase (AP) was generated by PCR with the primers (5'-[…]-3')(SEQ ID NO. 3) and (5'-[…]-3') (SEQ ID NO. 4)using the plasmid pGEM-4Z/PLAP489 (American Type Culture Collection) as the template. The 2,000 bp Xba I-Sal I fragment obtained was ligated into a Nhe I/Xho I vector derived from pREP7b to generate the plasmid pREP7b.AP. The 44 bp Xba I-Bgl II fragment from plasmid pMEP4 (Invitrogen)and the 36 bp BamH I-Kpn I fragment from pREP7 were ligated into the Xba I-Kpn I vector fragment from pREP7b.AP to generate the plasmid pMCS.AP. The 720 bp Xho I-Hind III fragment encoding the HIV-LTR promoter from the plasmid pU3R-III-CAT (Sodroski et al., Science 227:171-173, 1985) was ligated into the Xho I-Hind III vector fragment of PMCS.AP to generate the plasmid pHIV.AP. The CMV promoter was derived from the 600 bp Spe I-Asp718 I fragment from pCEP4 (Invitrogen). The 360 bp SV40 early promoter fragments were produced from pSV2tat72 (Frankel et al., Cell 55:1189-1193,1988) by PCR using the primers (5'-[…]-3') (SEQ ID NO. 5) and (5'-[…]-3') (SEQ ID NO. 6). The 480 bp phosphoglycerate kinase (PGK) promoter fragment was amplified from human placental genomic DNA (Promega, Madison, Wis.) based on published sequence (Pfeifer et al., Science 246:810-813, 1990) using the primers (5'-[…]-3') (SEQ ID NO. 7) and (5'-[…]-3') (SEQ ID NO. 8). The above fragments were ligated into the Xba I-Asp718 I vector fragment of pHIV.AP to generate pHIV2.AP, pHIV3.AP, pCMV.AP, pSVE.AP and PPGK.AP respectively. The tat-expression plasmid directed by HIV-LTR promoter, pHIV.tat, was generated by inserting the 400 bp EcoRV-HindIII fragment from pHIV.AP into the PvuII-HindIII vector fragment from pSV2tat72 (Frankel et al., Cell 55:1189-1193, 1988).
Transient transfections with various expression plasmids were performed on a human kidney embryonic cell line 293-EBNA (Invitrogen) using the cationic lipid DOTAP (Boehringer Mannheim). The cell culture media were changed 24 hr after transfection into a serum-free medium AIM V (Life Technologies) before addition of compounds or TNF-α (PeproTech) at the appropriate concentrations. AP activity measured by a colorimetric assay (Berger et al., Gene 66:1-10, 1988) was performed 19-24 hr later.

293-EBNA cells [5] = tested on: 293-EBNA cells

**Q.** `CCCCCCCCCCNCC(O)CCCCCCCn1c(=O)c2c(ncn2C)n(C)c1=O` (stereo not drawn) [CT2571, 1-(9-decylamino-8-hydroxynonyl)-3,7-dimethylxanthine] was tested. Which IC50 [1] did it give?
**A.** Its IC50 is 8 µM.

**Q.** And the “cytotoxic effect on 293-EBNA cells (Alamar Blue)” value (293-EBNA cells [2])?
**A.** Its value is “cytotoxic”.

**Q.** `CCCCCCCCNCCCCCCCCCCCn1c(=O)c2c(ncn2C)n(C)c1=O` [CT3556, 1-(11-N-octylaminoundecyl)-3,7-dimethylxanthine] was tested. Which “inhibition of myrPA formation in stimulated cells” value ([3]; 10 μM, tat-transfected cells stimulated with serum) did it give?
**A.** The value was “inhibited myrPA formation in stimulated cells”.

**Q.** What about the “PA mass, 293tar cells plus serum” value ([3]; CT3556 10 μM (FIG. 18)) of the same compound?
**A.** The value was “significant drop in PA mass”.

**Q.** And the “PA mass, 293tat cells plus serum” value ([3]; CT3556 10 μM (FIG. 18))?
**A.** The value was “increase in PA was blocked”.

**Q.** Which “inhibition of AP expression (CMV promoter)” value [1] does the source give for `Cn1cnc2c1c(=O)n(CCCCCCCCCC(O)CNc1ccccc1)c(=O)n2C` (stereo not drawn) [CT3528, N-(11-phenylamino-10-hydroxundecyl)-3,7-dimethylxanthine] here?
**A.** Its value is “No appreciable inhibition of AP expression”.

**Q.** What about the “cytotoxic effect on 293-EBNA cells (Alamar Blue)” value (293-EBNA cells [2]) of the same compound?
**A.** The value was “no significant cytotoxic effect”.

**Q.** Which results are given for `CCCCCCNCCCC(O)CCCCCCCn1c(=O)c2c(ncn2C)n(C)c1=O` (stereo not drawn) [CT2575, 1-(11-hexylamino-8-hydroxyundecyl)-3,7-dimethylxanthine]?
**A.** inhibition of AP expression (HIV-LTR promoter) [4]: inhibit HIV promoter driven expression; IC50 [1]: 3 µM; inhibition of AP expression (CMV promoter) [1]: inhibit CMV promoter driven expression; cytotoxic effect on 293-EBNA cells (Alamar Blue) (293-EBNA cells [2]): no significant cytotoxic effect; effect on cell viability / cytotoxicity (293-EBNA cells [5]): minimal cytotoxic effects
